According to ChEMBL document CHEMBL1201862, “PubChem BioAssay data set” (2004):
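A five-concentration, 48-hour dose response in 96-well plates underlies each endpoint, interpolated linearly between surrounding concentrations. Abbreviation: GI50, concentration required for 50% inhibition of growth.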 Activity calls are given as the source filed them. Rule as the data show it: active = GI50 up to about 1.1 µM and inactive = higher. Numbered stars: 1 amine (or outer) side, 2 acyl side, 3 side chain; on linkers, the order of the positions; unused ones are H or OH. Bridge positions count the residues as written; N and C are the ends. Square brackets hold non-standard residues; d marks the D form. Peptide text beside a SMILES is read from it. I, II: the chains in the order shown. Actinocin(9to1) = Cc1c2oc3c(C)ccc(C(=O)[*:1])c3nc-2c(C(=O)[*:2])c(N)c1=O; NMeH = CN[CH](Cc1c[nH]cn1)C(=O)O; Sar = CNCC(=O)O

Tests used:
Test in all cases: DTP human tumour cell line panel, 48 h
[1] = test system: OVCAR-4
[2] = test system: 786-0
[3] = test system: KM12
[4] = test system: A549
[5] = test system: Hs-578T
[6] = test system: MDA-N
[7] = test system: NCI-H460
[8] = test system: HL-60
[9] = test system: A498
[10] = test system: BT-549
[11] = test system: SF-539
[12] = test system: NCI-H226
[13] = test system: RPMI-8226
[14] = test system: PC-3
[15] = test system: NCI-H522
[16] = test system: HOP-62
[17] = test system: NCI-H23
[18] = test system: NCI/ADR-RES
[19] = test system: HCT-116
[20] = test system: SN12C

Measured: GI50

CC(=O)Nc1cc2c(cc1O)CC[C@@H]1[C@@H]2CC[C@]2(C)[C@@H](O)CC[C@@H]12
inactive: [1] > 100 µM | [2] 63 µM | [3] 15 µM | [4] 36.6 µM | [5] 74.1 µM | [6] 18.1 µM | [7] 34.8 µM | [8] 29.6 µM | [9] 24.1 µM | [10] 31.7 µM | [11] 34.5 µM | [12] 30.8 µM | [13] 45.3 µM | [14] 35.5 µM | [15] 20.8 µM | [16] 73.1 µM | [17] 47.3 µM | [18] 19.9 µM

Cc1cc2c3c(c1)S(=O)(=O)c1cc(Cl)ccc1N3CCC2
inactive: [1] 64.3 µM | [2] 82.2 µM | [3] > 100 µM | [4] > 100 µM | [5] 22 µM | [6] > 100 µM | [7] > 100 µM | [8] > 100 µM | [9] > 100 µM | [10] > 100 µM | [11] > 100 µM | [12] > 100 µM | [19] > 100 µM | [14] 88.1 µM | [16] 76.7 µM | [18] > 100 µM | [20] > 100 µM

O=c1[nH]nc(Cc2ccc(Cl)cc2)n1/N=C\c1ccc(/C=N/n2c(Cc3ccc(Cl)cc3)n[nH]c2=O)cc1
inactive: [1] 76.4 µM | [2] 13.3 µM | [3] > 100 µM | [4] > 100 µM | [5] 35.7 µM | [6] > 100 µM | [7] > 100 µM | [8] > 100 µM | [9] > 100 µM | [10] > 100 µM | [12] 96.6 µM | [13] > 100 µM | [19] > 100 µM | [14] > 100 µM | [15] > 100 µM | [16] 17 µM | [17] > 100 µM | [18] 90.2 µM | [20] 57.3 µM

CC1(C)O[C@H]([C@H](O)c2nnc3ccc(Cl)nn23)[C@@H]([C@H]2COC(C)(C)O2)O1
inactive: [1] > 100 µM | [2] > 100 µM | [3] > 100 µM | [4] > 100 µM | [5] > 100 µM | [6] > 100 µM | [7] > 100 µM | [8] > 100 µM | [9] > 100 µM | [10] > 100 µM | [11] > 100 µM | [13] > 100 µM | [19] > 100 µM | [14] > 100 µM | [15] > 100 µM | [16] > 100 µM | [17] > 100 µM | [18] > 100 µM | [20] > 100 µM

C=C1C(=O)OC2(C)CCC1CC1OC1(C)CCC=C(C)CCC2O (stereo not given)
inactive: [1] > 100 µM | [2] > 100 µM | [3] > 100 µM | [4] > 100 µM | [5] 57.5 µM | [6] 25.5 µM | [7] 46.9 µM | [8] 21.7 µM | [9] 35.9 µM | [10] 6.24 µM | [11] 88.3 µM | [12] > 100 µM | [13] 53 µM | [19] > 100 µM | [14] > 100 µM | [15] 64.7 µM | [17] > 100 µM | [18] > 100 µM | [20] 37.1 µM

N=c1oc2c(Cl)cc(Cl)cc2cc1C(=O)Nc1ccccn1
inactive: [1] 58.6 µM | [2] 27.5 µM | [3] 13.9 µM | [4] 44.4 µM | [5] 20.5 µM | [6] 62.1 µM | [7] 48.3 µM | [8] > 100 µM | [9] 40.1 µM | [10] 41.4 µM | [11] 40.9 µM | [12] > 100 µM | [13] 22.3 µM | [19] 41.1 µM | [14] 52 µM | [16] 16.4 µM | [17] 41.4 µM | [18] 66.4 µM | [20] 99.3 µM

COc1cc(C2S/C(=C/c3ccccc3)C(=O)N2Cc2ccccc2)cc(OC)c1OC (stereo not given)
inactive: [1] 23.2 µM | [2] 41.1 µM | [3] 36.1 µM | [4] 27.3 µM | [5] 30.2 µM | [6] 19.3 µM | [8] 21.2 µM | [9] 45.5 µM | [10] 54.5 µM | [12] > 100 µM | [13] 21.5 µM | [19] 17.5 µM | [14] 28.2 µM | [15] 16.1 µM | [16] 26.2 µM | [17] 67.3 µM | [18] 26.4 µM | [20] 39.2 µM

CC(=O)OC[C@@]12C[C@H]3C(=O)C(C)(C)C[C@H]3[C@]1(C)[C@@H](OC(C)=O)[C@]1(O)[C@H]([C@@H](OC(=O)c3ccccc3)[C@@H](C)[C@H]1OC(C)=O)[C@H]2OC(C)=O
inactive: [1] > 20 µM | [2] > 20 µM | [3] > 20 µM | [5] > 20 µM | [6] 12.9 µM | [7] 6.19 µM | [8] 4.92 µM | [9] > 20 µM | [10] > 20 µM | [11] 16.5 µM | [12] > 20 µM | [19] > 20 µM | [14] > 20 µM | [15] > 20 µM | [16] > 20 µM | [17] > 20 µM | [18] > 20 µM | [20] > 20 µM

CC1(C)OC(=S)N(c2ccccc2)C12C=Cc1ccccc1O2 (stereo not given)
inactive: [1] 33.4 µM | [2] > 100 µM | [3] 35 µM | [4] > 100 µM | [5] > 100 µM | [6] 39.5 µM | [7] 71.6 µM | [8] 8.59 µM | [9] > 100 µM | [10] 79.3 µM | [12] 85.3 µM | [13] 24.8 µM | [19] 36.6 µM | [14] 41.7 µM | [15] 20.2 µM | [16] > 100 µM | [17] 41 µM | [18] 53.5 µM | [20] > 100 µM

Cc1c2oc3c(C)ccc(C(=O)NC4C(=O)NC(C(C)C)C(=O)N5CCCC5C(=O)N(C)CC(=O)N(C)C(Cc5cnc[nH]5)C(=O)OC4C)c3nc-2c(C(=O)NC2C(=O)NC(C(C)C)C(=O)N3CCCC3C(=O)N(C)CC(=O)N(C)C(Cc3cnc[nH]3)C(=O)OC2C)c(N)c1=O (stereo not given) (I: TVP[Sar][NMeH] / II: TVP[Sar][NMeH]; ester I:1-I:C, II:1-II:C; linker I:N-II:N via Actinocin(9to1); configuration not given here)
active: [5] 1 µM
inactive: [1] > 100 µM | [2] 45.6 µM | [3] 62.1 µM | [4] 61.9 µM | [6] 25.2 µM | [7] 37.7 µM | [8] 63.7 µM | [9] > 10 µM | [10] > 100 µM | [11] 28.8 µM | [12] 56.2 µM | [13] 31.6 µM | [14] 55 µM | [15] 16.8 µM | [16] 43.5 µM | [17] 65.5 µM | [18] > 100 µM | [20] 57 µM
